Converted amounts (≈) assume the structure as drawn.
How the values were obtained:
[1] = test system: Apis mellifera; settings: acute; oral; unspecified; mortality
[2] = test system: Bibionidae; settings: chronic/long-term; duration: 28 days; body weight
[3] = test system: Colinus virginianus
[4] = test system: Cyprinus carpio; settings: acute; duration: 96 hours; mortality
[5] = test system: Daphnia magna; settings: chronic/long-term; duration: 21 days; body weight
[6] = test system: Oncorhynchus mykiss; settings: acute; duration: 96 hours; mortality
[7] = test system: Pimephales promelas; settings: chronic/long-term; duration: 28 days; body weight
[8] = test system: Rattus norvegicus
[9] = test system: Tagia sp.
[10] = test system: Aphidius rhopalosiphi; assay: LR50; higher = less toxic; settings: acute; duration: 48 hours; mortality
[11] = test system: Typhlodromus pyri; assay: LR50; higher = less toxic; settings: acute; duration: 7 days; mortality

For `COc1ccccc1N1CCS/C1=C(/C#N)Sc1cc(C(F)(F)F)ccc1F` [Flutianil], the LD50 [1] was > 100 µg/piece, the NOEC [2] was 396 mg/kg and the LD50 ([3]; acute, oral, mortality) was > 2250 mg/kg. The NOAEL ([3]; reproduction developmental) was 186 mg/kg-day, the LC50 [4] was > 0.87 µg/mL and the NOEC [5] was 0.00697 mg/L. For the same molecule, the LC50 [6] was 0.051 µg/mL (≈ 0.12 µM), the NOEC [7] was 0.000781 mg/L and the LD50 ([8]; acute, oral, mortality) was > 2000 mg/kg. It also gave an NOAEL ([8]; chronic, duration: 2 years, histopathology: nonneoplastic) of 81.9 mg/kg-day, an NOAEL ([8]; developmental, development) of 100 mg/kg-day and an NOAEL ([8]; reproduction developmental, organ weight) of 123 mg/kg-day. The LC50 ([9]; acute, duration: 14 days, mortality) was > 500 mg/kg, the NOEC ([9]; chronic/long-term, duration: 8 weeks, reproduction) was 6.25 mg/kg and the LR50 [10] was > 480 g/ha. The LR50 [11] was > 480 g/ha.

Reference: EPA's ToxValDB 9.5 (doi:10.2903/j.efsa.2014.3805)
